Measured values as given in US20060281722A1, “Compounds and uses thereof” (priority 2005, published 2006).

Test system: Tumor Necrosis Factor alpha (TNFα)
Experiment: Lipopolysaccharide (LPS)-induced serum TNFα in rats (oral dosing 2 h before LPS, serum ELISA)
Assay type: in vivo
Parameters: unit not given here
Conditions: LPS 0.01 mg/Kg intraperitoneal, male Lewis rats
Method: The purpose of this study was to examine the ability of compound 1 to suppress lipopolysaccharide (LPS)-induced Tumor Necrosis Factor alpha (TNFα) levels when administered to male Lewis rats.
Compound 1 was added directly to 100% ethanol. The suspension was vortexed vigorously until all of compound 1 was completely dissolved or fully suspended. The solution was made up to volume in 0.5% methylcellulose. The final concentration of ethanol was 10%.
At time minus 2 hours, rats were administered the appropriate amount of prednisolone and/or compound 1 via oral gavage in a dose volume of 0.25 mL. Untreated control and LPS Control animals received 0.25 mL of the vehicle only.
LPS was prepared at a 100X concentration by resuspension in Phosphate Buffered Saline (PBS). The LPS solution was vortexed vigorously to ensure complete suspension of the LPS. Immediately prior to injection, the LPS was serial diluted in PBS to a 1× working solution.
At time 0, animals were injected via the intraperitoneal route with 1.0 mL of the 1×LPS working solution (final LPS dose is 0.01 mg/Kg body weight) using a 25 gauge needle. Vehicle control animals received 1 mL of PBS.
Blood was expelled into a serum separator tube containing Clot Activator (Becton Dickinson, Franklin Lakes, N.J.). Samples were allowed to sit at room temperature for 30 min prior to spinning at 2000 rpm for 10 min in a bench top centrifuge at room temperature. Serum was transferred to an Eppendorf tube and immediately assayed for TNFα or stored at −80° C. until assayed.
Serum samples were assayed using the BioSource Rat TNFα ELISA kit according to the manufacturer's instructions.
Evaluation of the results included statistical analysis of differences in serum TNFα between treatment and control groups. Group means were compared using a one-way ANOVA. If the ANOVA was significant, p≦0.05, a multiple comparison test (Tukey-Kramer) was used to determine which groups were different.

SMILES	Serum TNFα ± Standard Error (0.3 mg/kg compound 1, oral gavage at minus 2 hours)	Serum TNFα ± Standard Error (1 mg/kg compound 1, oral gavage at minus 2 hours)	Serum TNFα ± Standard Error (3 mg/kg compound 1, oral gavage at minus 2 hours)	Serum TNFα ± Standard Error (0.3 mg/kg prednisolone, oral gavage at minus 2 hours)	Serum TNFα ± Standard Error (10 mg/kg prednisolone, oral gavage at minus 2 hours)
Clc1ccc2c(c1)C(N1CCN(CCN3CCOCC3)CC1)=Nc1ccccc1O2 [compound1]	13675.6 ± 7606.9	12769.1 ± 5231.2	12980.4 ± 6788.4		
C[C@]12C=CC(=O)C=C1CC[C@@H]1[C@@H]2[C@@H](O)C[C@@]2(C)[C@H]1CC[C@]2(O)C(=O)CO [prednisolone, reference compound]				11375.9 ± 5238.4	6239.3 ± 5020.4
